Assays:
MM.1S cells = assay: MM.1S tumour model in NOD/SCID mice; type: in vivo, mouse; settings: NOD/SCID mice bearing MM.1S tumours; administered through drinking water
Protocol: The IBD model mice were dosed with 2 or 3 mg/kg of compounds of the present disclosure, for example compound I-1. The MM model mice were dosed with about 20 to about 50 mg/kg of compounds of the present disclosure, for example compound I-1. The appropriate amount of 5 mg/mL PBS solution with 5% v/v Cremophore EL/5% v/v ethanol as prepared above was diluted into the mice's drinking water.
MM.1S cells expressing firefly luciferase were injected along with Matrigel basement membrane into the upper flank of NOD/SCID mice and allowed to establish for two weeks. Compound I-1 or vehicle (n=4) were administered through drinking water (as described in General Methods).

CLP-induced sepsis = assay: Caecum Ligation and Puncture (CLP) sepsis model; type: in vivo, mouse; settings: CLP mice, oral gavage; vs. 20% in CLP group without drug
Source text: The mouse CLP model is well-accepted clinically relevant method for anti-sepsis drug testing. The surgical operation included opening of the mouse abdomen, ligation of the cecum and puncture of the ligated cecum with a needle. Rittirsch, 2009 Method was followed to induce Mid to High grade experimental sepsis to achieve 70-100% […] rate over 7 days after CLP operation.
Methods: Five groups (n=10 each) of mice were designed with (1) a blank control, (2) Sham control (abdomen operation was performed but without cecal ligation/puncture), (3) CLP group (operation with cecal ligation/puncture), (4) CLP+compound I-1 (MN100) (3 mg/kg/d), and (5) CLP+compound I-1 (MN100) (10 mg/kg/d). ZPR-MN100 (compound I-1) was given 3 days before CLP operation and continued to 7 days after CLP. ZPR-MN100 was delivered via oral gavage twice a day. […] Mouse condition and survival were recorded every day. Seven days after CLP, the experiment was terminated and survival curves were drawn using GraphPad Prism.

PAC2-K681A = target: T1, PAC2-K681A (Mus musculus, UniProt Q9ES52, K681A); assay: Biolayer interferometry, PAC2-K681A; type: binding; settings: 20 μM analyte; K681A vs wild-type PAC2
T1 construct: PAC1 and PAC2 consists of phosphatase and C2 domain (residues aa 402-861 and aa 402-857 respectively); made in house; host or cells: E. coli BL21 co-transformed with pBirAcm
T1 sequence (Q9ES52 402-857 K681A): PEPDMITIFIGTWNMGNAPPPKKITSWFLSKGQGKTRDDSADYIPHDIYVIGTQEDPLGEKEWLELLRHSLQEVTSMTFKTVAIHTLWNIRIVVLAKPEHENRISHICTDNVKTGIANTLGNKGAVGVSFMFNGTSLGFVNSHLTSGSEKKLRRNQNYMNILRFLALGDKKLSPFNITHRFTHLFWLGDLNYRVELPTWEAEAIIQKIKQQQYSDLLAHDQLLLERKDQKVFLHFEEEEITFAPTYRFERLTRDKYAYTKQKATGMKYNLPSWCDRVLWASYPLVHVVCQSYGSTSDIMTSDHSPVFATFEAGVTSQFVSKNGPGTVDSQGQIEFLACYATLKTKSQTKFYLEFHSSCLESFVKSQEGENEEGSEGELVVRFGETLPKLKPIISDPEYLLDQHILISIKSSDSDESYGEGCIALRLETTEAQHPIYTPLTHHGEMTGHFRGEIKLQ
Protocol: Expression of PAC2-Avi tag for Biolayer interferometry. A sequence corresponding to Avi-tag ([…]) was added to the c-terminal end of the PAC2 in LIC-HMT-PAC2 expressing vector via standard restriction digestion and ligation. The LIC-HMT-PAC2-Avi expressing vector was then co-transformed into E. coli BL21 cells with pBirAcm expression vector in 1:1 molar ratio. Overnight culture was inoculated with a 250-fold dilution to start the actual culture. The cells were grown at 37° C. in LB medium (supplemented with 50 μg/mL of kanamycin and 10 μg/mL of chloramphenicol) with shaking speed of 225 rpm. When OD600 reached about 0.6, 5 mM of biotin in bicine buffer pH 8.3 was added to the culture to have final concentration of 125 μM of biotin. The culture was then cooled down to room temperature before the addition of 0.4 mM isopropyl-B-D-1-thiogalactopyranoside (IPTG) to induce the expression of the recombinant protein with Avi-tag. The rest of the method is identical as written in “Expression of PAC2 for crystallography”.
Biolayer interferometry. […] The association was measured for 600 s at an analyte concentration of 20 μM followed by dissociation for 300 s in the same buffer as the baseline. The raw data was analyzed using the Octet Red Data Analysis software (ver. 8.2). […]

[1] = system: LPS-stimulated TNFα production; assay: Measurement of TNFα production in LPS-stimulated SHIP1 KO cells reconstituted with SHIP1; type: cell-based, mouse; settings: 10 ng/ml LPS
Protocol: Cell lines. J16 and J17 cell lines derived from SHIP1+/+and −/−BMDM respectively were previously described (Ming-Lum et al., 2012) and cultured in Mac media (IMDM supplemented with 10% (v/v) FCS, 10 μM β-mercaptoethanol, 150 μM monothioglycolate and 1 mM L-glutamine). J17 cells expressing wild type and mutant His6-SHIP1, Clover-SHIP1 or mRuby2-STAT3 constructs were generated by lentivirus mediated gene transfer as described (Cheung et al., 2013). Transduced cells were selected with 5 μg/ml blasticidin. Clover-SHIP1 and mRuby2-STAT3 cells were further subjected to fluorescent activated cell sorting to select the brightest cells on a FACS Aria II cytometer.
Measurement of TNFα production. Cells were seeded at 50×10^4 cells per well in a 96-well tissue culture plate and allowed to adhere overnight. Media was changed the next day 1 hour prior to stimulation. Cells were stimulated with 1 or 10 ng/ml LPS+/−various concentrations of IL10 for 1 hour. Supernatant was collected and secreted TNFα protein levels were measured using a BD OptEIA Mouse TNFα Enzyme-Linked Immunosorbent Assay (ELISA) kit (BD Biosciences, Mississauga, ON). Triplicates wells were used for each stimulation condition. IC50 values were calculated from three independent experiments and differences in IL10 […] values from cells expressing SHIP1 mutants vs SHIP1 WT protein were analyzed by one-way ANOVA.

## Cc1cc(O)cc2c1C1(C)CCC3C(C)(C)CCCC3(C)C1C2 (centres unmarked) [Compound I-1]
MM.1S cells
  tumour mass (bioluminescence imaging): effectively reduces tumour mass
CLP-induced sepsis
  7-day survival rate: 50%

## CC12CCC3C(C)(C)C(N)CCC3(C)C1Cc1cc(O)cc(O)c12 (centres unmarked) [Compound I-2]
PAC2-K681A
  binding to PAC2 with K681A substitution (BLI): impairs

## IL10: anti-inflammatory cytokine interleukin-10
[1]; cells expressing K681A SHIP1
  TNFα production: not
[1]; cells expressing wild-type SHIP1
  TNFα production: inhibited TNFα production efficiently
